Reference: ChEMBL document CHEMBL1131271, “Potent inhibitors of the MAP kinase p38” (Bioorg Med Chem Lett, 1998)

Biological target: MAP kinase p38 (Homo sapiens, UniProt O15264+Q15759+Q16539+P53778)
Experiment: Inhibition of TNF-alpha production by lipopolysaccharide-stimulated human peripheral blood mononuclear cells
Type: functional

Compound: Nc1cc(OCc2ccccc2)c2c(-c3ccncc3)c(-c3ccc(F)cc3)[nH]c2n1
- IC50: 0.91 nM

Compound: Nc1ccc2c(-c3ccncc3)c(-c3ccc(F)cc3)[nH]c2n1
- IC50: 37 nM

Compound: COc1cccc(COc2cc(N)[nH]c3nc(-c4ccc(F)cc4)c(-c4ccncc4)c2-3)c1
- IC50: 1.5 nM

Compound: CCCCOc1cc(N)[nH]c2nc(-c3ccc(F)cc3)c(-c3ccncc3)c1-2
- IC50: 4 nM

Compound: Nc1cc(OCCCc2ccccc2)c2c(-c3ccncc3)c(-c3ccc(F)cc3)[nH]c2n1
- IC50: 9 nM
